Measurements from patent US11723910B1, “Compositions and methods for modulating the endothelial barrier” (University of South Florida, priority 2019, dated 2023).

Tests used:
[1] = tested on: HUVEC; test: Seahorse glycolytic rate assay in HUVEC; type: cell-based, human; settings: Afobazole 300 μM 3 hours prior to the assay vs vehicle
Method: FIGS. 2A and 2B show glycolytic PER (glycoPER) and oxygen consumption rate (OCR) obtained from glycolytic rate assay of cells treated with 100 μM PRE-084 or vehicle for 3 hours. […] FIGS. 2D-2H show assay parameters obtained from the glycolytic rate assay. FIGS. 2I-2K show assay parameters from ATP rate assay. *P<0.05.
(§1) HUVEC and media were obtained from LifeLine cell technology, PRE-084 from Tocris Biotechne, and CCCP from Abcam. TER was determined with an Electrical Cell-Substrate Impedance Sensor (ECIS; Applied Biophysics). For transfection, 200 nM σ1 siRNA (SEQ ID NO: 2: GGCUUGAGCUCACCACCUA) or control non-targeting RNA (SEQ ID NO: 3: UGGUUUACAUGUUUUCCUA) purchased from Dharmacon was introduced with the Nucleofector II device (Lonza). Cell culture procedures, TER recordings, and protein isolation and transfection protocols have been previously described. Western blotting was done using WES (Protein Simple). Rabbit anti σ1 was purchased from Novus Biologicals NBP1-82479 and mouse anti (β-actin was from cell signaling #3700. Both primaries were used at 1:50 dilution. Seahorse xfp analyzer was used for glycolytic rate and ATP rate with assay kits (Agilent) according to manufacturer's instructions using 40.000 cells/well. Calculation of assay parameters was done using Wave software with its built-in report generators and statistical analysis was done using Prism 7.

[2] = tested on: sigma-1 receptor (σ1); test: Western blot of σ1 expression after siRNA knockdown in HUVEC; type: cell-based, human; settings: 200 nM σ1 siRNA
Method: (§2) Because ATP depletion has been reported to disrupt the endothelial barrier (Unno N, et al. (1996) Hyperpermeability and ATP depletion induced by chronic hypoxia or glycolytic inhibition in Caco-2BBe monolayers. Am J Physiol 270(6 Pt 1):G1010-1021), assessment was performed to determine whether carbonyl cyanide m-chlorophenyl hydrazine (CCCP) induced mitochondrial insult causes barrier disruption and whether the barrier-enhancing properties of PRE-084 can counteract this effect. […] To further validate the contribution of σ1 to endothelial barrier function, siRNA was used to selectively reduce σ1 expression in HUVEC.
(§3) HUVEC and media were obtained from LifeLine cell technology, PRE-084 from Tocris Biotechne, and CCCP from Abcam. TER was determined with an Electrical Cell-Substrate Impedance Sensor (ECIS; Applied Biophysics). For transfection, 200 nM σ1 siRNA (SEQ ID NO: 2: […]) or control non-targeting RNA (SEQ ID NO: 3: […]) purchased from Dharmacon was introduced with the Nucleofector II device (Lonza). Cell culture procedures, TER recordings, and protein isolation and transfection protocols have been previously described. Western blotting was done using WES (Protein Simple). […]

[3] = tested on: human umbilical vein endothelial cell (HUVEC) monolayers; test: Transendothelial electrical resistance (TER, ECIS) of HUVEC monolayers; type: cell-based; settings: mean TER at 70 h vs non-targeting RNA
Method: as §1

[4] = tested on: HUVEC monolayers treated with CCCP; test: CCCP-induced barrier disruption (TER) in HUVEC; type: cell-based, human; settings: 10 μM CCCP
Method: as §2, §3

Q: `CCOc1ccc2nc(SCCN3CCOCC3)[nH]c2c1` [Afobazole] was tested. Which “glycolytic proton efflux rate” value [1] did it give?
A: enhances

Q: And the oxygen consumption rate [1]?
A: lowers

Q: For “σ1 siRNA: σ1 siRNA (SEQ ID NO: 2: GGCUUGAGCUCACCACCUA) purchased from Dharmacon (listed as RNA, chemistry not given here)”, which “decrease in σ1 protein compared to controls” value ([2]; 48-h post-transfection) is on record?
A: 47%

Q: And the “decrease in σ1 protein compared to controls” value ([2]; 70-h post-transfection)?
A: 74%

Q: And the “TER in σ1 siRNA-treated cells compared to control” value [3]?
A: significant decreases

Q: “carbonyl cyanide m-chlorophenyl hydrazine [CCCP]” was tested. Which “transendothelial electrical resistance (TER) after CCCP” value [4] did it give?
A: significantly lowered
